A word on the IC50: it is the point on the concentration scale where inhibition reaches its midpoint.

Consider 18 molecules from US10160747B2, “Compounds and methods for kinase modulation, and indications therefor” (Plexxikon Inc., priority 2016, dated 2018).

Experiment [1] has as its system MOLM-14 D835Y (endogenous FLT3 ITD and transfected FLT3 D835Y). Kind of experiment: MOLM-14 D835Y cell proliferation assay (CellTiter-Glo). Particulars: Homo sapiens, MOLM-14, 72 h; 3 d growth, GMean. It is filed as cell-based. In short, it runs like this: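 MOLM-14 derivatives carrying D835Y or F691L, selected under escalating AC220, were seeded at 1×10^4 cells/well and exposed to an 8-point 1:3 compound series (1 to 0.00046 μM, 0.2% DMSO final) for three days at 37° C., 5% CO2. CellTiter-Glo luminescence (ATP content) versus concentration gave IC50.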
For orientation: In ATP-based viability assays light output follows the ATP content of the culture.

A further experiment concerns the target T1, FLT3-ITD (Homo sapiens, UniProt P36888).
T1 sequence (P36888 1-993): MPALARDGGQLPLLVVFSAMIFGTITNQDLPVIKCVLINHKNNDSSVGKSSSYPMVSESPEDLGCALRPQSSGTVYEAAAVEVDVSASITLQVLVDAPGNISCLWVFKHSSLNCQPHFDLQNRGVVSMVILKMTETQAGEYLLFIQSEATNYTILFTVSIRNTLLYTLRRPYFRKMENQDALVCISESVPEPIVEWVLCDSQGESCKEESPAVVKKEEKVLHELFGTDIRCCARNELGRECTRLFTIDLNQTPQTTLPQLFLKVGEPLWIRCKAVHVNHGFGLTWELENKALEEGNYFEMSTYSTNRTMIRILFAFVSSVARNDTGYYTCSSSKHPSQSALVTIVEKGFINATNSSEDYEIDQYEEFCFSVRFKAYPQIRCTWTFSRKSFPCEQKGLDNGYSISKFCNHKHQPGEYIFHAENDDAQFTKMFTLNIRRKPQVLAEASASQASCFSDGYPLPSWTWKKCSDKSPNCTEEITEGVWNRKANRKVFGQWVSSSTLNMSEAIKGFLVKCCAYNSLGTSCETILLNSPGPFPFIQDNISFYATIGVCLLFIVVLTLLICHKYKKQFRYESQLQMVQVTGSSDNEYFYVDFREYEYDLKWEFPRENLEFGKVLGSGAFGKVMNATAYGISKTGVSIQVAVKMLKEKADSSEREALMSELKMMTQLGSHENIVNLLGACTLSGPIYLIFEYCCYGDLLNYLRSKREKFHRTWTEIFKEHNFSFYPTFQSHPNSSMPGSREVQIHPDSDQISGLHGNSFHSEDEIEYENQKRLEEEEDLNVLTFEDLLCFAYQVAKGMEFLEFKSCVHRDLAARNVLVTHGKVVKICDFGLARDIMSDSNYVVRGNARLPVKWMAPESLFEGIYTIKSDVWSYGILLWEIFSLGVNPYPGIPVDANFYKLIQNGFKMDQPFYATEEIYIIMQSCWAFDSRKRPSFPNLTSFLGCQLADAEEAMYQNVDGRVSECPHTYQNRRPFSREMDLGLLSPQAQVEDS
In words: FLT3-ITD recombinant enzyme kinase assay (AlphaScreen). It is filed as biochemical. The conditions noted are these: 8 pt; read-out: FLT3_ITD 8 pt: IC50. In short, it runs like this:
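AlphaScreen proximity signal at 580 nm, from PY20 acceptor and streptavidin donor beads, measures tyrosine phosphorylation of 30 nM biotin-poly(Glu4-Tyr) peptide by recombinant kinase. ATP: 10 μM (FLT3 mutants), 100 μM (c-KIT). IC50 from loss of signal.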

On to `O=C(Cc1ccc(-c2cnc(Nc3cnn(C4CC4)c3)nc2)cc1)Nc1ccc(C(F)(F)F)cn1` [Compound P-0236, 2-[4-[2-[(1-cyclopropylpyrazol-4-yl)amino]pyrimidin-5-yl]phenyl]-N-[5-(trifluoromethyl)-2-pyridyl]acetamide], for which the half-maximal inhibitory concentration (IC50) (in experiment [1]; on FLT3-ITD) was 0.0001 to 10 µM throughout.
Regarding `Cc1ncc(NC(=O)Cc2ccc(-c3cnc(Nc4cnn(C)c4C)nc3)cc2)cc1C(F)(F)F` [Compound P-0229, 2-[4-[2-[(1,5-dimethylpyrazol-4-yl)amino]pyrimidin-5-yl]phenyl]-N-[6-methyl-5-(trifluoromethyl)-3-pyridyl]acetamide], the IC50 (in experiment [1]; at FLT3-ITD) was 0.0001 to 10 µM in each case.
Turning to `O=C(Cc1ccc(-c2cnc(Nc3cnn(C4CC4)c3)nc2)cc1)Nc1cncc(C(F)(F)F)c1` [Compound P-0231, 2-[4-[2-[(1-cyclopropylpyrazol-4-yl)amino]pyrimidin-5-yl]phenyl]-N-[5-(trifluoromethyl)-3-pyridyl]acetamide], the half-maximal inhibitory concentration (IC50) (in experiment [1]; on FLT3-ITD) was 0.0001 to 10 µM in each case.
Consider `COCCn1cc(Nc2ncc(-c3ccc(CC(=O)Nc4cnc(OC)c(C(F)(F)F)c4)c(F)c3)cn2)cn1` [Compound P-0265, 2-[2-fluoro-4-[2-[[1-(2-methoxyethyl)pyrazol-4-yl]amino]pyrimidin-5-yl]phenyl]-N-[6-methoxy-5-(trifluoromethyl)-3-pyridyl]acetamide], for which the IC50 (in experiment [1]; at FLT3-ITD) was 0.0001 to 10 µM each time.
Turning to `CCn1cc(Nc2ncc(-c3ccc(CC(=O)Nc4cnc(Cl)c(C(F)(F)F)c4)c(F)c3)cn2)cn1` [Compound P-0260, N-[6-chloro-5-(trifluoromethyl)-3-pyridyl]-2-[4-[2-[(1-ethylpyrazol-4-yl)amino]pyrimidin-5-yl]-2-fluoro-phenyl]acetamide], the IC50 (in experiment [1]; at FLT3-ITD) was 0.0001 to 10 µM throughout.
For the molecule `COc1ncc(NC(=O)Cc2ccc(-c3cnc(Nc4cnn(C)c4)nc3)c(F)c2)cc1C(F)(F)F` [Compound P-0206, 2-[3-fluoro-4-[2-[(1-methylpyrazol-4-yl)amino]pyrimidin-5-yl]phenyl]-N-[6-methoxy-5-(trifluoromethyl)-3-pyridyl]acetamide], the concentration for half-maximal inhibition (IC50) (in experiment [1]; on FLT3-ITD) was 0.0001 to 10 µM each time.
As to `COc1ncc(NC(=O)Cc2ccc(-c3cnc(Nc4cnn(C5CC5)c4)nc3)cc2F)cc1C(F)(F)F` [Compound P-0241, 2-[4-[2-[(1-cyclopropylpyrazol-4-yl)amino]pyrimidin-5-yl]-2-fluoro-phenyl]-N-[6-methoxy-5-(trifluoromethyl)-3-pyridyl]acetamide], the IC50 (in experiment [1]; at FLT3-ITD) was 0.0001 to 10 µM in each case.
Consider `O=C(Cc1ccc(-c2cnc(Nc3cnn(C4CC4)c3)nc2)cc1)Nc1cc(C(F)(F)F)ccn1` [Compound P-0237, 2-[4-[2-[(1-cyclopropylpyrazol-4-yl)amino]pyrimidin-5-yl]phenyl]-N-[4-(trifluoromethyl)-2-pyridyl]acetamide], for which the IC50 (in experiment [1]; on FLT3-ITD) was 0.0001 to 10 µM in each case.
In the case of `O=C(Cc1cc(F)c(-c2cnc(Nc3cnn(C(F)F)c3)nc2)cc1F)Nc1cc(C(F)(F)F)ccn1` [Compound P-0021, 2-[4-[2-[[1-(difluoromethyl)pyrazol-4-yl]amino]pyrimidin-5-yl]-2,5-difluoro-phenyl]-N-[4-(trifluoromethyl)-2-pyridyl]acetamide], the IC50 (in experiment [1]; at FLT3-ITD) was 0.0001 to 10 µM in each case.
Regarding `COc1ncc(NC(=O)Cc2ccc(-c3cnc(Nc4cn[nH]c4C)nc3)cc2)cc1C(F)(F)F` [Compound P-0221, N-[6-methoxy-5-(trifluoromethyl)-3-pyridyl]-2-[4-[2-[(5-methyl-1H-pyrazol-4-yl)amino]pyrimidin-5-yl]phenyl]acetamide], the IC50 (in experiment [1]; on FLT3-ITD) was 0.0001 to 10 µM each time.
As for `CCn1cc(Nc2ncc(-c3ccc(CC(=O)Nc4ccc(C(F)(F)F)cn4)c(F)c3)cn2)cn1` [Compound P-0256, 2-[4-[2-[(1-ethylpyrazol-4-yl)amino]pyrimidin-5-yl]-2-fluoro-phenyl]-N-[5-(trifluoromethyl)-2-pyridyl]acetamide], the IC50 (in experiment [1]; at FLT3-ITD) was 0.0001 to 10 µM throughout.
For the molecule `CCn1cc(Nc2ncc(-c3ccc(CC(=O)Nc4cnc(C)c(C(F)(F)F)c4)c(F)c3)cn2)cn1` [Compound P-0261, 2-[4-[2-[(1-ethylpyrazol-4-yl)amino]pyrimidin-5-yl]-2-fluoro-phenyl]-N-[6-methyl-5-(trifluoromethyl)-3-pyridyl]acetamide], the IC50 (in experiment [1]; at FLT3-ITD) was 0.0001 to 10 µM in each case.
For `CC(C)(O)C#Cc1cc2cc(-c3ccc(CC(=O)Nc4cncc(C(F)(F)F)c4)cc3)cnc2[nH]1` [Compound P-0204, 2-[4-[2-(3-hydroxy-3-methyl-but-1-ynyl)-1H-pyrrolo[2,3-b]pyridin-5-yl]phenyl]-N-[5-(trifluoromethyl)-3-pyridyl]acetamide], the IC50 (in experiment [1]; at FLT3-ITD) was 0.0001 to 10 µM each time.
For `COc1n[nH]c2ncc(-c3ccc(CC(=O)Nc4cnc(C)c(C(F)(F)F)c4)cc3)cc12` [Compound P-0218, 2-[4-(3-methoxy-1H-pyrazolo[3,4-b]pyridin-5-yl)phenyl]-N-[6-methyl-5-(trifluoromethyl)-3-pyridyl]acetamide], the 50% inhibitory concentration (IC50) (in experiment [1]; at FLT3-ITD) was 0.0001 to 10 µM in each case.
Turning to `Cc1nn(C)cc1Nc1ncc(-c2ccc(CC(=O)Nc3cnc(C)c(C(F)(F)F)c3)cc2)cn1` [Compound P-0228, 2-[4-[2-[(1,3-dimethylpyrazol-4-yl)amino]pyrimidin-5-yl]phenyl]-N-[6-methyl-5-(trifluoromethyl)-3-pyridyl]acetamide], the IC50 (in experiment [1]; at FLT3-ITD) was 0.0001 to 10 µM in each case.
As to `COCCn1cc(Nc2ncc(-c3ccc(CC(=O)Nc4ccc(C(F)(F)F)cn4)c(F)c3)cn2)cn1` [Compound P-0269, 2-[2-fluoro-4-[2-[[1-(2-methoxyethyl)pyrazol-4-yl]amino]pyrimidin-5-yl]phenyl]-N-[5-(trifluoromethyl)-2-pyridyl]acetamide], the IC50 (in experiment [1]; at FLT3-ITD) was 0.0001 to 10 µM each time.
`CCn1cc(Nc2ncc(-c3ccc(CC(=O)Nc4cc(C(F)(F)F)ccn4)cc3)cn2)cn1` [Compound P-0250, 2-[4-[2-[(1-ethylpyrazol-4-yl)amino]pyrimidin-5-yl]phenyl]-N-[4-(trifluoromethyl)-2-pyridyl]acetamide]: the half-maximal inhibitory concentration (IC50) (in experiment [1]; at FLT3-ITD) was 0.0001 to 10 µM throughout.
Consider `COc1ncc(NC(=O)Cc2ccc(-c3cnc4[nH]nc(Cl)c4c3)cc2)cc1C(F)(F)F` [Compound P-0230, 2-[4-(3-chloro-1H-pyrazolo[3,4-b]pyridin-5-yl)phenyl]-N-[6-methoxy-5-(trifluoromethyl)-3-pyridyl]acetamide], for which the IC50 (in experiment [1]; on FLT3-ITD) was 0.0001 to 10 µM each time.
